Assay results from patent US20060141546A1, “Bacterial test method by glycated label binding” (priority 2002, published 2006).

Experiments:
[1] = buffers for ALP determinations; cited from earlier work
bacteria [2] = test: Effect of divalent cations on ALP binding to bacteria (Example 7, Table 5, FIG. 12); details: for O.D. at 405 nm, With ALP: bacteria plus cation (CaCl2 1 mM, MgCl2 1 mM, ZnCl2 0.2 mM) with ALP; for O.D. at 405 nm, No ALP: bacteria plus cation (CaCl2 1 mM, MgCl2 1 mM, ZnCl2 0.2 mM)
Procedure: (§1) Bacterial cells (1 to 4.5×10^7 cells/mL) were washed twice with water after centrifugation to separate cells into a packed pellet from the supernatant liquid. The washed cells in pellet form were suspended in 20 μL of EPPS buffer (50 mM at pH 8.0) and 30 μL of water. […]
(§2) The mixture of glycated protein and bacterial cells was left at 25° C. for 15 minutes. The mixture was then centrifuged at 30,000 rpm for 30 minutes after which the bacterial cells formed a pellet at the bottom of the tube and were washed with water 4-5 times (50 μL). Centrifugation allows separation of glycoprotein bound to the bacteria cells from unbound glycated protein(s).
(§3) After washing, the bacterial pellets were suspended in 50 μL of borate buffer (25 mM at pH 9.0). A 5 μL aliquot of the suspension was assayed for detection of ALP binding by adding 5 μL of para-nitrophenol phosphate (PNPP, 100 mM), 50 μL sodium borate buffer (25 mM at pH 9.0) and 140 μL of water. […] The color was read at 405 nm using an ELISA plate reader between 15-30 min; the absorbance is directly proportional to the amount of ALP bound to the bacteria cell.

[3] = system: bacteria (Sf—Staph. faec.; Ec: E. coli); test: Effect of various cations on ALP binding to bacteria (Example 8, FIGS. 13-14); details: FIG. 13; for effect of various cations on ALP-binding (in words): cations 2 mM, bovine intestinal mucosa ALP
Procedure: as §1
as §2, with “was” for “were”
as §3

E. coli [4] = test: ALP binding to bacteria in presence of carbohydrates, polysaccharides, glycopeptides and lectins (Example 5, Table 3); details: ALP 100 mUnits plus 15 μg of additive
Procedure: (§4) Bacterial cells (1 to 4.5×10^7 cells/mL) were washed twice with water after centrifugation to separate cells into a packed pellet from the supernatant liquid. The washed cells in pellet form were suspended in 20 μl of EPPS buffer (50 mM at pH 8.0) and 30 μL of water. Hemoglobin (20 μg) was added as a blocking additive. Alkaline phosphatase (ALP) (100 mUnits) from bovine intestine and 15 μg of simple carbohydrates or proteoglycan or lectins, were added.
as §2
(§5) After washing, the bacterial pellets were suspended in 50 μL of sodium tetraborate buffer (25 mM at pH 9.5). A 5 uL aliquot of the suspension was assayed for detection of ALP binding by adding 5 μL of para-nitrophenol phosphate (PNPP, 100 mM), 50 μL sodium borate buffer (25 mM at pH 9.0) and 140 μL of water. […] The color is read at 405 nm using a ELISA plate reader between 15-30 min and the absorbance is directly proportional to the amount of ALP bound to the bacteria cell adhesions for glycated groups.

S. faec. [5] = test: as above; details: ALP 100 mUnits plus 15 μg of additive
Procedure: as §4, §2, §5

E. coli [6] = test: Competitive inhibition of ALP binding to bacteria by added protein (Example 3, Table 2); details: protein 2-40 μg added with ALP 2 μg
Procedure: (§6) Less than 20% was no inhibition (NI) and greater than 90% was complete inhibition (CI) with a binding constant great than ALP.
(§7) Bacterial cells (1 to 4.5×10^7 cells/mL) were washed twice with water after centrifugation to separate cells into a packed pellet from the supernatant liquid. The washed cells in pellet form were suspended in 20 ul of N-2-hydroxyethyl piperazine-N′-[3-propane sulfonic acid] EPPS buffer (50 mM at pH 8.0) and 30 μL of water. Glycated protein(s) (2-40 μg) were added. In some cases a glycated protein (2-40 μg) and bovine intestinal alkaline phosphatase (ALP) (2 μg or […]) were added and the binding of the glycated protein measured by the reduction of binding of ALP.
as §2
as §5, with “borate” for “sodium tetraborate”, “9.0).” for “9.5).”, “μL” for “uL”, “min. The” for “min and the”
(§8) Only a protein binding to the cell adhesions for glycated groups causes the inhibition of the binding of ALP by bacteria. A protein binding to the cell adhesions for glycated groups provides a positive number in Table 2.

S. faec. [7] = test: as above; details: protein 2-40 μg added with ALP 2 μg
Procedure: as §6, §7, §2
as §5, with “borate” for “sodium tetraborate”, “9.0).” for “9.5).”, “μL” for “uL”, “min. The” for “min and the”
as §8

bacteria [8] = test: Competitive inhibition of ALP binding to bacteria (Example 3); details: for binding to bacteria compared with ALP: from complete inhibition of ALP binding
Procedure: as §6, §7, §2
as §5, with “borate” for “sodium tetraborate”, “9.0).” for “9.5).”, “μL” for “uL”, “min. The” for “min and the”
as §8

For `CC(N)(CO)CO` [2-amino-2-methyl-1,3-propanediol], the pKa [1] is given as 8.6.

For `CC(C)(N)CO` [2-amino-2-methyl-1-propanol], the pKa [1] is listed as 9.3.

With `[Ca+2].[Cl-].[Cl-]` [CaCl2] the “O.D. at 405 nm, With ALP” value (bacteria [2]) was 0.36 O.D and the “O.D. at 405 nm, No ALP” value (bacteria [2]) was 0.23 O.D.

In the case of `[Co+2]` [Co^+2], the “effect of various cations on ALP-binding (in words)” value (from here on “effect of various cations”) [3] is reported as “stimulate ALP-binding”.

With `[Cu+2]` [Cu^2+] the “effect of various cations” value [3] was “stimulate ALP-binding”.

For `O=C(O)CN(CCN(CC(=O)O)CC(=O)O)CC(=O)O` [EDTA, reference compound], the “ALP activity in the presence of EDTA” value ([3]; EDTA 10 mM) was “total inhibition”.

With `[Fe+2]` [Fe^2+] the “effect of various cations” value [3] was “stimulate ALP-binding”.

With `C[C@H](O)[C@@H](O)[C@@H](O)[C@H](O)C=O` [Fucose] the “absorbance (405 nm) of ALP bound to bacteria” value (E. coli [4]) was 2.0 and the “absorbance (405 nm) of ALP bound to bacteria” value (S. faec. [5]) was 2.3.

With `CC(=O)N[C@@H]1[C@@H](O)[C@@H](O)[C@@H](CO)O[C@H]1O` [GalNAc, N-Acetyl-β-D-Galactosamine] the “absorbance (405 nm) of ALP bound to bacteria” value (E. coli [4]) was 1.8 and the “absorbance (405 nm) of ALP bound to bacteria” value (S. faec. [5]) was 1.9.

In the case of `CC(=O)N[C@@H]1[C@@H](O)[C@H](O)[C@@H](CO)O[C@H]1O` [GlcNAc, N-Acetyl-β-D-Glucosamine], the “absorbance (405 nm) of ALP bound to bacteria” value (E. coli [4]) is reported as 2.0 and the “absorbance (405 nm) of ALP bound to bacteria” value (S. faec. [5]) is reported as 2.0.

With `O=C[C@H](O)[C@@H](O)[C@H](O)[C@H](O)C(=O)O` [Glucuronic acid] the “absorbance (405 nm) of ALP bound to bacteria” value (E. coli [4]) was 1.9 and the “absorbance (405 nm) of ALP bound to bacteria” value (S. faec. [5]) was 2.0.

In the case of `O=C[C@@H](O)[C@H](O)[C@@H](O)[C@H](O)C(=O)O` [Iduronic acid], the “absorbance (405 nm) of ALP bound to bacteria” value (E. coli [4]) is reported as 1.9 and the “absorbance (405 nm) of ALP bound to bacteria” value (S. faec. [5]) is reported as 2.0.

With `[Cl-].[Cl-].[Mg+2]` [MgCl2] the “O.D. at 405 nm, With ALP” value (bacteria [2]) was 0.44 O.D and the “O.D. at 405 nm, No ALP” value (bacteria [2]) was 0.20 O.D.

In the case of `C[C@@H](O[C@H]1[C@H](O)[C@@H](CO)OC(O)[C@@H]1N)C(=O)O` (some centres unmarked) [Muramic Acid], the “absorbance (405 nm) of ALP bound to bacteria” value (E. coli [4]) is reported as 1.8 and the “absorbance (405 nm) of ALP bound to bacteria” value (S. faec. [5]) is reported as 2.1.

For `CCC1(CC)C(=O)NC(=O)NC1=O` [barbital], the pKa [1] is listed as 7.44.

In the case of `OCCNCCO` [diethanolamine], the pKa [1] is listed as 8.7.

For Chondroitin sulfate A, the “absorbance (405 nm) of ALP bound to bacteria” value (E. coli [4]) was 1.1 and the “absorbance (405 nm) of ALP bound to bacteria” value (S. faec. [5]) was 1.3.

In the case of Chondroitin sulfate B, the “absorbance (405 nm) of ALP bound to bacteria” value (E. coli [4]) is reported as 0.9 and the “absorbance (405 nm) of ALP bound to bacteria” value (S. faec. [5]) is reported as 0.5.

With Concanavalin A the “absorbance (405 nm) of ALP bound to bacteria” value (E. coli [4]) was 0.0 and the “absorbance (405 nm) of ALP bound to bacteria” value (S. faec. [5]) was 0.1.

In the case of Hemoglobin [reference compound], the “inhibition of the binding of ALP by bacteria” value (E. coli [6]) is reported as <20%, the “inhibition of the binding of ALP by bacteria” value (S. faec. [7]) is reported as <20% and the “inhibition of the binding of ALP by bacteria (in words)” value (from here on “inhibition of the binding … (in words)”) (bacteria [8]) is reported as “did not inhibit the binding of ALP”.

In the case of Hyaluronic Acid, the “absorbance (405 nm) of ALP bound to bacteria” value (E. coli [4]) is reported as 1.8 and the “absorbance (405 nm) of ALP bound to bacteria” value (S. faec. [5]) is reported as 2.0.

With “Tamm-Horsfall protein (THP): glycated protein with one high-mannose and five complex or hybrid type chains” the “inhibition of the binding of ALP by bacteria” value (E. coli [6]) was 40% and the “inhibition of the binding of ALP by bacteria” value (S. faec. [7]) was 49%.

In the case of “Transferrin: glycated protein, simple carbohydrates”, the “inhibition of the binding of ALP by bacteria” value (E. coli [6]) is reported as 75% and the “inhibition of the binding of ALP by bacteria” value (S. faec. [7]) is reported as 75%.

For polyarginine [reference compound], the “inhibition of the binding … (in words)” value (bacteria [8]) was “not found to inhibit ALP activity”.

For polyhistidine [reference compound], the “inhibition of the binding … (in words)” value (bacteria [8]) was “not found to inhibit ALP activity”.

With polylysine [reference compound] the “inhibition of the binding … (in words)” value (bacteria [8]) was “not found to inhibit ALP activity”.

For “α-1-Antitrypsin: glycated protein as received from suppliers”, the “inhibition of the binding of ALP by bacteria” value (E. coli [6]) was 84% and the “inhibition of the binding of ALP by bacteria” value (S. faec. [7]) was 74%.

In the case of “α-1-glycoprotein (AGP): glycated protein with five complex or hybrid type chains”, the “inhibition of the binding of ALP by bacteria” value (E. coli [6]) is reported as 86%, the “inhibition of the binding of ALP by bacteria” value (S. faec. [7]) is reported as >90% and the “binding to bacteria compared with ALP” value (bacteria [8]) is reported as “better binders than ALP”.

B1: Uristatin: urinary trypsin inhibitor lacking the O-linked glycoconjugate chain (protein, UniProt P02760 206-352, looked up)
Inter-alpha-trypsin inhibitor …: AVLPQEEEGSGGGQLVTEVTKKEDSCQLGYSAGPCMGMTSRYFYNGTSMACETFQYGGCMGNGNNFVTEKECLQTCRTVAACNLPIVRGPCRAFIQLWAFDAVKGKCVLFPYGGCQGNGNKFYSEKECREYCGVPGDGDEELLRFSN
modifications: Inter-alpha-trypsin inhibitor light chain lacks O-linked glycan chain
For B1, the “inhibition of the binding of ALP by bacteria” value (E. coli [6]) was >90%, the “inhibition of the binding of ALP by bacteria” value (S. faec. [7]) was >90% and the “effect of fragmentation of the peptide chain on inhibition of ALP binding” value (bacteria [8]; fragmentation with protease) was “did not impact the inhibition”. The “binding to bacteria compared with ALP” value (bacteria [8]) was “better binders than ALP”.

B2: Bikunin: urinary trypsin inhibitor with two glycoconjugate chains and two Kunitz inhibitor domains (protein, UniProt P02760 206-352, looked up)
Inter-alpha-trypsin inhibitor …: AVLPQEEEGSGGGQLVTEVTKKEDSCQLGYSAGPCMGMTSRYFYNGTSMACETFQYGGCMGNGNNFVTEKECLQTCRTVAACNLPIVRGPCRAFIQLWAFDAVKGKCVLFPYGGCQGNGNKFYSEKECREYCGVPGDGDEELLRFSN
modifications: Inter-alpha-trypsin inhibitor light chain
In the case of B2, the “inhibition of the binding of ALP by bacteria” value (E. coli [6]) is reported as >90%, the “inhibition of the binding of ALP by bacteria” value (S. faec. [7]) is reported as >90% and the “binding to bacteria compared with ALP” value (bacteria [8]) is reported as “better binders than ALP”.

B3: Myoglobin: non-glycated protein as received from suppliers (protein, UniProt P02144 2-154, looked up)
Myoglobin: GLSDGEWQLVLNVWGKVEADIPGHGQEVLIRLFKGHPETLEKFDKFKHLKSEDEMKASEDLKKHGATVLTALGGILKKKGHHEAEIKPLAQSHATKHKIPVKYLEFISECIIQVLQSKHPGDFGADAQGAMNKALELFRKDMASNYKELGFQG
With B3 the “inhibition of the binding of ALP by bacteria” value (E. coli [6]) was <20%, the “inhibition of the binding of ALP by bacteria” value (S. faec. [7]) was <20% and the “inhibition of the binding … (in words)” value (bacteria [8]) was “did not inhibit the binding of ALP”.

B4: beta-2-Glycoprotein: glycoprotein with one N-link complex type chain (protein, UniProt P02749 20-345, looked up)
Beta-2-glycoprotein 1: GRTCPKPDDLPFSTVVPLKTFYEPGEEITYSCKPGYVSRGGMRKFICPLTGLWPINTLKCTPRVCPFAGILENGAVRYTTFEYPNTISFSCNTGFYLNGADSAKCTEEGKWSPELPVCAPIICPPPSIPTFATLRVYKPSAGNNSLYRDTAVFECLPQHAMFGNDTITCTTHGNWTKLPECREVKCPFPSRPDNGFVNYPAKPTLYYKDKATFGCHDGYSLDGPEEIECTKLGNWSAMPSCKASCKVPVKKATVVYQGERVKIQEKFKNGMLHGDKVSFFCKNKEKKCSYTEDAQCIDGTIEVPKCFKEHSSLAFWKTDASDVKPC
For B4, the “inhibition of the binding of ALP by bacteria” value (E. coli [6]) was 74% and the “inhibition of the binding of ALP by bacteria” value (S. faec. [7]) was 61%.
